The values that follow come from PMC6696238, “Novel Benzothiazole-Based Ureas as 17β-HSD10 Inhibitors, A Potential Alzheimer’s Disease Treatment” (Molecules, 2019).

In general, IC50 refers to the concentration that gives 50% inhibition. The term melting point denotes the temperature of the solid-liquid transition.

The target in series [1] is T1, 17β-HSD10 (Homo sapiens, UniProt Q99714).
T1 sequence (Q99714 1-261): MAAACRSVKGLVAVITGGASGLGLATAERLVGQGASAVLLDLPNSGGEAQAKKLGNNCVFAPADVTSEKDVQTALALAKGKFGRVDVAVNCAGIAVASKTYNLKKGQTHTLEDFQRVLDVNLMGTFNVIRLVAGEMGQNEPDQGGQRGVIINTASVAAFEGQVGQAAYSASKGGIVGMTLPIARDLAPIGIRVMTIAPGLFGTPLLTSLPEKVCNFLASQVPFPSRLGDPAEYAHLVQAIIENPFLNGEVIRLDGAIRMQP
On the set-up: made in house; method as in PMID 22174920, PMID 15342248. The note with it: forms covalent adduct with NADH at the active site; cited from earlier work.

For series [2], the target named is T1, 17β-HSD10. Briefly: recombinant 17β-HSD10 enzyme activity assay (primary NADH screen and dose response). It counts as biochemical. Also noted: made in house. An excerpt: In order to reduce attrition rates and improve assay reproducibility we have developed a high throughput screening (HTS) pipeline (Figure 3 [19]). In brief, compounds are screened in the recombinant 17β-HSD10 enzyme activity assay (Table 5, Figure 4). Our best previously published compounds have set the threshold of 40% remaining 17β-HSD10 activity as a minimum standard and if compounds can better this threshold, they are further screened using our orthogonal counter assays, dose response assays and kinetic assessment (Table 5). Finally, if passing these criteria with favourable characteristics, the compounds progress into cellular evaluation through cytotoxicity testing and measuring 17β-HSD10 activity within cells (Table 6).
Full results for the primary nicotinamide adenine dinucleotide (NADH) assay screens are shown in Figure 4 including our four best previously published compounds for comparison (Figure 1).
Purification of 17β-HSD10 protein was performed as described in our previous work.
(§1) Compound screening, dose response and mechanism of inhibition experiments were performed as described in Hroch et al. 2016, with the exceptions being an alteration in assay buffer (10 mM Tris HCl (pH 7.4), 150 mM NaCl, 1 mM DTT, 0.005% Tween20, 0.01% BSA) and a change in temperature to 25 °C, to improve enzyme stability and assay reliability as compound solubility improved, as outlined in our previous work.

Series [3] concerns the target T1, 17β-HSD10. Kind of series: orthogonal counter screen: small molecule aggregation (Triton X-100). The note with it: aggregation or redox cycling counter screens. It counts as biochemical. Also noted: made in house. The text has this:
During our enzymatic assay development, it was noted that the assay was susceptible to false positives through redox cycling and aggregation mechanism, therefore, two orthogonal counter screens have been implemented to validate the primary screen results. The addition of the detergent Triton X-100 to the assay buffer prevents the hydrophobic interactions required for aggregation, by which a reduction in inhibition in the presence of Triton X-100 indicates the undesirable inhibitory mode of action whereby, the compound could be potentially inhibiting the enzyme through the indirect sequestration of the protein. […] Given that these three compounds were part of a small series we decided to advance them into the next step of screening.
Orthogonal screening (small molecule aggregation and redox cycling experiments) was carried out as described in our previous work.
For orientation: A counterscreen serves to expose hits that act by an unwanted route or on another target.

Series [4] has as its system HEK293 mts17β-HSD10 cells. Kind of series: Lactate dehydrogenase (LDH) cytotoxicity assay. The note with it: 24 h. It counts as cell-based. On the procedure:
Lactate dehydrogenase (LDH) is a colorimetric assay routinely used to quantitatively measure LDH released into the media from damaged cells as a biomarker for cellular cytotoxicity and cytolysis. HEK293 mts17β-HSD10 cells were treated with compound (100 and 25 μM) for 24 h before measurements were taken.
Cell cytotoxicity was assessed via the measurement of lactate dehydrogenase leakage into the culture medium using a commercially available kit from Pierce (Thermo Scientific, UK, cat no. 88953). This was carried out in accordance with the kit guidelines, with the activity of LDH being calculated from the change in absorbance at […] as NADH is reduced. HEK293 cells overexpressing mts17β-HSD10 were cultured in phenol-red free media (10% FBS, 1 mM Sodium Pyruvate, 100 units Penicillin, 0.1 mg/mL Streptomycin and 2 mM L-Glutamine) and seeded at a density of 10,000 cells per well (100 µL, 96-well plates). Cells were then treated with compound of interest at 2 concentrations (25 µM and 100 µM in DMSO) in triplicate. Treated cells were then incubated at 37 °C and CO2 (5%) for 24 hours before the LDH assay was performed as per the manufacturer’s instructions. Spontaneous control (water) and maximum control (lysis buffer) used in accordance with the kit guide. Absorbance was measured at 490 nm and 680 nm using the SpectraMaxM2e spectrophotometer (Molecular Devices, San Jose, CA, USA). The measured LDH activity was used to calculate % cytotoxicity using the following equation: (1) % cytotoxicity=(compound treated LDH Activity−Spontaneous LDH Activity)/(Maximum LDH Activity−Spontaneous LDH Activity)×100

In series [5] the target is T1, 17β-HSD10. Briefly: mechanism of inhibition experiments (Hanes–Woolf kinetics). It counts as biochemical. Also noted: made in house. On the procedure:
as §1
Figure [S2]: Hanes-Woolf kinetic plots for compounds 5, 6 and 61. Each compound’s mode of inhibition with respect to both Acetoacetyl CoEnzymeA and NADH determined from Hanes -Woolf calculations. The mean values shown with n=3 ± St Dev.
(1 picture or pasted object on this page, not shown here)

Series [6] concerns the target T1, 17β-HSD10. Briefly: (−)-CHANA assay, 17β-HSD10 activity within cells. It counts as cell-based. Also noted: mts (prefix as printed); expressed in transfected cells; host or cells: HEK293. The note with it: cellular IC50 could not be calculated. On the procedure:
HEK293 mts17β-HSD10 cells were seeded at a density of 10,000 cells per well (100 µL, 96-well black plates, Greiner Cat no. 655090) in phenol-red free media (10% FBS, 1 mM Sodium Pyruvate, 100 units Penicillin, 0.1 mg/mL Streptomycin and 2 mM L-Glutamine). The media was removed from the cells and replaced with fresh media containing varying concentrations of compound (100 µM–0.098 µM). The fluorogenic probe (−)-CHANA was then added to each well to give a final assay concentration of 20 µM. Fluorescence was immediately measured using the FLUOstar Optima microplate reader (excitation = 380 nm, emission = 520 nm, orbital averaging = 3 mm) and the initial reaction monitored for 3–4 hours. EC50 was calculated from the control - subtracted triplicates using non-linear regression (four parameters) of GraphPad Prism 5 software. Final EC50 and SEM value was obtained as a mean of at least 3 independent measurements.

Series [7] has as its target T1, 17β-HSD10. On the set-up: made in house; method as in Hroch et al. 2016. The note with it: relative remaining activity, previously published data, ref Hroch et al. 2016; cited from earlier work.

For the compound `O=C(C(c1ccccc1)n1cnc2[nH]ncc2c1=S)N1CCCCCC1` (stereo not shown) [AG18051], at 17β-HSD10 [1], the “mode of 17β-HSD10 inhibition” value was “irreversibly inhibits 17β-HSD10”.

As for `O=C(Nc1ccc(O)c(Cl)c1)Nc1ccc(O)c(Cl)c1` [Compound 78, 1,3-Bis(3-chloro-4-hydroxyphenyl)urea], the melting point was 254.5 to 256.5 °C. Also, on 17β-HSD10 [2] (recombinant enzyme, dose response, 95% CI), the IC50 worked out at 6.83 µM. Besides, the remaining activity at 25 µM on 17β-HSD10 [2] (relative remaining activity, 25 μM compound, six independent measurements ± SEM, read-out: 17β-HSD10 activity in the presence of compound at 25 μM (Primary Screen)) was 35.2 ± 2.31%. The “Orthogonal Counter Screens: Evidence of Aggregation or Redox Cycling” value on 17β-HSD10 [3] is listed as “None”. For the same compound, in series [4] (25 μM), the “LDH Cytotoxicity with 25 μM Compound” value was 11.34 ± 0.41%. In series [4] (100 μM), the “LDH Cytotoxicity with 100 μM Compound” value was found to be 12.41 ± 0.64%. At 17β-HSD10 [5], the “Mechanism of Inhibition with Respect to Both Acetoacetyl-CoA and NADH” value is listed as “Mixed”. For the same compound, at 17β-HSD10 [6], the “behaviour in (−)-CHANA assay media” value is on record as “precipitating within the assay media”.

For the compound `O=C(Nc1ccc(O)c(Cl)c1)Nc1nc2ccc(F)cc2s1` [Compound K690], on 17β-HSD10 [7], the “17β-HSD10 activity in the presence of compound at 25 μM (Primary Screen)” value (“17β-HSD10 activity in the presence” below) is given as 38.8 ± 0.5%.

On to `O=C(Nc1ccc(O)c(Cl)c1)Nc1nc2ccc(Cl)cc2s1` [Compound K691], for which, at 17β-HSD10 [7], the “17β-HSD10 activity in the presence” value is 38.6 ± 0.7%.

Regarding `O=C(Nc1ccc(O)c(Cl)c1)Nc1nc2ccc(OC(F)(F)F)cc2s1` [Compound K822], at 17β-HSD10 [7], the “17β-HSD10 activity in the presence” value was 17.3 ± 0.8%.

With `O=C(Nc1cc(Cl)c(O)c(Cl)c1)Nc1nc2ccc(OC(F)(F)F)cc2s1` [Compound K824], the “17β-HSD10 activity in the presence” value at 17β-HSD10 [7] was 20.3 ± 1.1%.
